Patent publication US5750648A, “Retroviral protease inhibitors and combinations thereof” (G.D. Searle & Co., priority 1994, dated 1998)

Columns and labels:
[1] = biological target: HIV protease (Human immunodeficiency virus type 1 group M subtype B, UniProt P04585); test: HIV protease enzyme assay (fluorescent substrate 2-aminobenzoyl-Ile-Nle-Phe(p-NO2)-Gln-ArgNH2); format: biochemical; conditions: concentration at which the inhibitor reduces enzyme activity by 50%; enzyme about 12.3 nanomolar, substrate about 80 μM, pH 6.4
Source text: The compounds of the present invention are advantageously effective HIV protease inhibitors. Utilizing an enzyme assay as described below, the compounds set forth in the examples herein disclosed inhibited the HIV enzyme. The preferred compounds of the present invention and their calculated IC50 (the concentration at which the inhibitor compound reduces enzyme activity by 50%) values are shown in Table 2.
The enzyme method is as follows. The substrate is 2-aminobenzoyl-Ile-Nle-Phe(p-NO2)-Gln-ArgNH2. The positive control is MVT-101 (Miller, M. et al, Science, 246, 1149 (1989)). The assay buffer is 20 mM sodium phosphate, pH 6.4, 20% glycerol, 1 mM EDTA, 1 mM DTT and 0.1% CHAPS. The substrate is dissolved in DMSO, then diluted 10 fold in assay buffer. Final substrate concentration in the assay is about 80 μM. HIV protease is diluted in the assay buffer to a final enzyme concentration of about 12.3 nanomolar, based on a molecular weight of 10,780.
The final concentration of DMSO is about 14% and the final concentration of glycerol is about 18%. The test compound is dissolved in DMSO and diluted in DMSO to ten times (10×) the test concentration. Ten microliters (10 μL) of the enzyme preparation is added, the materials mixed and then the mixture is incubated at ambient temperature for 15 minutes. The enzyme reaction is initiated by the addition of 40 μL of substrate. The increase in fluorescence is monitored at 4 time points (0, 8, 16 and 24 minutes) at ambient temperature. Each assay is carried out in duplicate wells.

[2] = tested on: HIV-1 in CEM cells; test: CEM cell assay, HIV inhibition in acutely infected cells (MTT); format: cell-based; conditions: Human immunodeficiency virus 1, CCRF-CEM, 168 h; HIV-1 infected CEM cells, 7 days
Description: The effectiveness of selected compounds of the present invention were determined in the above-described enzyme assay and in a CEM cell assay. The HIV inhibition assay method of acutely infected cells is an automated tetrazolium based calorimetric assay essentially that reported by Pauwles et al, J. Virol. Methods 20, 309-321 (1988). Assays were performed in 96-well tissue culture plates. CEM cells, a CD4+ cell line, were grown in RPMI-1640 medium (Gibco) supplemented with a 10% fetal calf serum and were then treated with polybrene (2 μg/ml). An 80 μl volume of medium containing 1×10^4 cells was dispensed into each well of the tissue culture plate. To each well was added a 100 μl volume of test compound dissolved in tissue culture medium (or medium without test compound as a control) to achieve the desired final concentration and the cells were incubated at 37° C. for 1 hour. A frozen culture of HIV-1 was diluted in culture medium to a concentration of […] (TCID50=the dose of virus that infects 50% of cells in tissue culture), and a 20 μL volume of the virus sample (containing 1000 TCID50 of virus) was added to wells containing test compound and to wells containing only medium (infected control cells). Several wells received culture medium without virus (uninfected control cells). Likewise, the intrinsic toxicity of the test compound was determined by adding medium without virus to several wells containing test compound. In summary, the tissue culture plates contained the following experiments: In experiments 2 and 4 the final concentrations of test compounds were 1, 10, 100 and 500 μg/ml. Either azidothymidine (AZT) or dideoxyinosine (ddI) was included as a positive drug control. […] DMSO was added to all control wells at an appropriate concentration. Following the addition of virus, cells were incubated at 37° C. in a humidified, 5% CO2 atmosphere for 7 days. Test compounds could be added on days 0, 2 and 5 if desired. On day 7, post-infection, the cells in each well were resuspended and a 100 μl sample of each cell suspension was removed for assay. A 20 μL volume of a 5 mg/ml solution of 3-(4,5-dimethylthiazol-2-yl)-2,5-diphenyltetrazolium bromide (MTT) was added to each 100 μL cell suspension, and the cells were incubated for 4 hours at […] in a 5% CO2 environment. […] To each sample was added 100 μl of 10% sodium dodecylsulfate in 0.01N HCl to lyse the cells, and samples were incubated overnight. The absorbance at 590 nm was determined for each sample using a Molecular Devices microplate reader. Absorbance values for each set of wells is compared to assess viral control infection, uninfected control cell response as well as test compound by cytotoxicity and antiviral efficacy.

[3] = tested on: CEM cells; format: cell-based; set-up: unit not given beside the values
Description: The HIV inhibition assay method of acutely infected cells is an automated tetrazolium based calorimetric assay essentially that reported by Pauwles et al, J. Virol. Methods 20, 309-321 (1988). Assays were performed in 96-well tissue culture plates. CEM cells, a CD4+ cell line, were grown in RPMI-1640 medium (Gibco) supplemented with a 10% fetal calf serum and were then treated with polybrene (2 μg/ml). An 80 μl volume of medium containing 1×10^4 cells was dispensed into each well of the tissue culture plate. To each well was added a 100 μl volume of test compound dissolved in tissue culture medium (or medium without test compound as a control) to achieve the desired final concentration and the cells were incubated at 37° C. for 1 hour. A frozen culture of HIV-1 was diluted in culture medium to a concentration of 5×104 TCID50 per ml (TCID50=the dose of virus that infects 50% of cells in tissue culture), and a 20 μL volume of the virus sample (containing 1000 TCID50 of virus) was added to wells containing test compound and to wells containing only medium (infected control cells). Several wells received culture medium without virus (uninfected control cells). Likewise, the intrinsic toxicity of the test compound was determined by adding medium without virus to several wells containing test compound. In summary, the tissue culture plates contained the following experiments: In experiments 2 and 4 the final concentrations of test compounds were 1, 10, 100 and 500 μg/ml. Either azidothymidine (AZT) or dideoxyinosine (ddI) was included as a positive drug control. […] DMSO was added to all control wells at an appropriate concentration. Following the addition of virus, cells were incubated at 37° C. in a humidified, 5% CO2 atmosphere for 7 days. Test compounds could be added on days 0, 2 and 5 if desired. […] The absorbance at 590 nm was determined for each sample using a Molecular Devices microplate reader. Absorbance values for each set of wells is compared to assess viral control infection, uninfected control cell response as well as test compound by cytotoxicity and antiviral efficacy.

[4] = Identification of metabolite in blood of male rats after oral administration (LC-MS); format: in vivo, rat; conditions: male rats (n=5), in 0.5% methylcellulose and 0.1% polysorbate 80, blood at 0.25-4 hours
Description: Butaneamide, 2-[(N,N-dimethylaminoacetyl)amino]-N-[3-[[[(1,1-dimethylethyl)amino]carbonyl](3-methylbutyl)amino]-2-hydroxy-1-(phenylmethyl)propyl]-3,3-dimethyl-, [1S-[1R*(R*), 2S*]]-, as prepared in Example 1 herein, is administered to male rats (n=5) orally in water containing 0.5% methylcellulose and 0.1% polysorbate 80 in a total volume of 5 to 7 mL per kilogram. Blood samples are collected at 0.25, 0.50, 1, 2 and 4 hours. The samples for each time-point are pooled and extracted onto a 100 mg C18 solid phase extraction column (SPEC) after prior treatment with methanol to denature plasma proteins. The extract is purified by washing the SPEC with water and collected after the addition of 1% formic acid in methanol to the SPEC. Concentration of the extract is achieved by evaporation and resolubilization in a small volume of water:acetonitrile (3:1, v/v). The resolubilized extract is filtered through a 0.2μ filter and injected onto a liquid chromatograph coupled to a mass spectrometer, using a VG Trio 2 Mass Spectrometer, by means of a thermospray interface. The chromatographic separation is produced by use of a 10 cm (2×5 cm) YMC Basic column with a mobile phase of water:acetonitrile:pyridine:formic acid (545:440:10:5, by volume).

IC50 [1] [nM] | EC50 [2] [nM] | SMILES | TD50 [3] | metabolite found in blood extract compared with synthesized metabolite standard [4]
10 | 58 | CC(C)CCN(C[C@@H](O)[C@H](Cc1ccccc1)NC(=O)[C@@H](NC(=O)CN(C)C)C(C)(C)C)C(=O)NC(C)(C)C [Example 1, Butaneamide, 2-[(N,N-dimethylaminoacetyl)amino]-N-[3-[[[(1,1-dimethylethyl)amino]carbonyl](3-methylbutyl)amino]-2-hydroxy-1-(phenylmethyl)propyl]-3,3-dimethyl-,[1S-[1R*(R*), 2S*]]-] | 45,000 | corresponding spectra and chromatogram from a standard of the synthesized metabolite can be favorably compared
6 | 22 | CNCC(=O)N[C@H](C(=O)N[C@@H](Cc1ccccc1)[C@H](O)CN(CCC(C)C)C(=O)NC(C)(C)C)C(C)(C)C [Example 2, (2R, 3S)-3(N-methylaminoacetyl-L-tert-butylglycinyl) amino-2-hydroxy-4-phenyl-1-[N-(3-methylbutyl)-N-[(1,1-dimethylethyl)amino]carbonyl]aminobutane] | 45,000 | –
13 | 91 | CC[C@H](C)[C@H](NC(=O)CNC)C(=O)N[C@@H](Cc1ccccc1)[C@H](O)CN(CCC(C)C)C(=O)NC(C)(C)C [Example 4, (2R,3S)-3-(N-methylaminoacetyl-L-isoleucinyl) amido-1-[N-isoamyl-N-(tert-butylcarbamoyl)]amino-4-phenyl-2-butanol] | 55,000 | –
